Test results from US20210379153A1, “COMBINATION THERAPIES COMPRISING SIRP ALPHA-BASED CHIMERIC PROTEINS” (Shattuck Labs, Inc., priority 2018, published 2021).
Entries after “also recorded” stand apart in the source; their conditions may differ.

Key:
tumors [1] = assay: In vivo tumor model, SIRPα-Fc-LIGHT with anti-PD-1 (Example 15); parameters: species or system mice; conditions: combination with anti-PD-1 antibody
Procedure: The in vivo ability of combinations of the SIRPα-Fc-LIGHT chimeric protein with anti-PD-1 antibodies to target and treat tumors was determined. (FIG. 26A and FIG. 26B) FIG. 26C and FIG. 26D include data relevant to the graphs of FIG. 26A and FIG. 26B.

Raji cells = assay: In vitro phagocytosis of Raji cells by human macrophages; format: cell-based
From the text: To this end, in vitro tumor cell phagocytosis assays were established to determine whether SIRPα-Fc-CD40L enhanced macrophage-mediated phagocytosis of various tumor cell lines both alone and in combination with anti-CD20 antibodies.
Initially, a variety of CD20+ lymphoma (Toledo, Raji, and Ramos) cell lines were co-cultured with human monocyte-derived macrophages to assay the amount of phagocytosis promoted by the SIRPα(CD172a)-Fc-CD40L chimeric protein in the presence or absence of an anti-CD20 antibody.
Such synergistic effect was unexpected.
These experiments used an in vitro phagocytosis assay with human donor macrophages and several human tumor cell lines (e.g., Raji cells, a human Burkitt lymphoma tumor cell line), to test whether SIRPα-Fc-CD40L's blockade of the tumor cell antigen CD47 (“don't eat me signal”) could stimulate phagocytosis, and potentially synergize with the anti-CD20 antibody, Rituximab. FIG. 10A is a cartoon illustrating steps used in this assay.
Co-cultures of tagged Raji cells and macrophages were treated with a variety of chimeric protein and antibody combinations, including control IgGs with an anti-CD20 antibody (Rituximab), an anti-CD47 antibody (CC9, Celgene), the SIRPα(CD172a)-Fc-CD40L chimeric protein, and/or pembrolizumab (an anti-PD-1 antibody; […]/MK 3475, Merck). […] Such synergistic effect was unexpected.

CT26 tumor = CT26 tumor model, order of administration with anti-CTLA-4 or anti-PD-1 (Example 10); format: in vivo, mice
[2] = test system: MCF7 (low Her2-expressing breast cancer cell line); assay: Macrophage engulfment of MCF7 cells; format: cell-based, human; conditions: monotherapy
WEHI3 tumors = assay: WEHI3 tumor model; format: in vivo, BALB/C mice
Procedure: FIG. 20C: a similar CT26 experiment was initiated as described in FIG. 20A above, however mice were pre-treated on days −1, 1, and 10 with IP injections of 100 μg of either or both CD4/CD8 depleting antibodies. Mice were inoculated with CT26 tumors on day 0 and treated at a later starting date than FIG. 20A with mSIRPα-Fc-CD40L ARC on days 7, 9, and 11. […] In FIG. 20D and FIG. 20E, BALB/C mice were inoculated with WEHI3 tumors (FIG. 20D) or A20 tumors (FIG. 20E) subcutaneously on the rear flank, and then treated via IP injection with anti-CD20 or mSIRPα-Fc-CD40L on days 7, 9, and 11 (WEHI3) or days 10, 12, and 14 (A20); when tumors were established and reached approximately 57-60 mm^3. A cohort of mice were pre-treated with an interferon alpha receptor 1 (IFNAR1) blocking antibody ([…] by IP injection) on days −1, 1, and 10 (WEHI3) or on days −1, 1, and 13 (A20). FIG. 20F to FIG. 20H are graphs showing blockade of CD4, CD8, and IFNAR1. Peripheral blood analysis by flow cytometry of CD4 (FIG. 20F), CD8 (FIG. 20G), and IFNAR1 (FIG. 20H) depletion following depleting antibody treatment corresponding to FIG. 20C to FIG. 20E. Samples were normalized to untreated animals.
In a second set of experiments, a combination of an anti-IFNAR-1 antibody and the anti-CD20 antibody, the SIRPα(CD172a)-Fc-CD40L chimeric protein in combination with the anti-IFNAR-1 antibody, and a triple combination of the SIRPα(CD172a)-Fc-CD40L chimeric protein, the anti-IFNAR-1 antibody, and the anti-CD20 antibody were tested. […] The depletion of IFNAR1+ cells was confirmed at multiple time points in the peripheral blood by flow cytometry (FIG. 20H).

tumors [3] = assay: In vivo tumor model, SIRPα-Fc-OX40L with checkpoint antibodies (Example 14); parameters: species or system mice
Procedure: The in vivo ability of combinations of the SIRPα-Fc-OX40L chimeric protein with anti-CTLA-4 antibodies or the SIRPα-Fc-OX40L chimeric protein with anti-PD-1 antibodies to target and treat tumors was determined.

[4] = test system: HCC827 (high EGFR-expressing lung cancer cell line); assay: Macrophage engulfment of HCC827 cells; format: cell-based, human; conditions: combination with anti-EGFR antibody (cetuximab); vs low EGFR-expressing tumor cells
CT26 tumor cells = assay: CT26 tumor model, checkpoint antibody combinations (first Example 8); format: in vivo, BALB/C mice
Procedure: In FIG. 15B, the treatments included: an anti-CTLA-4 antibody (9D9), an anti-PD-1 antibody (RMP1-14), an anti-OX40 antibody (OX86), or the SIRPα(CD172a)-Fc-CD40L chimeric protein. […] In FIG. 15D, the treatments included the SIRPα(CD172a)-Fc-CD40L chimeric protein then the anti-CTLA-4 antibody. Tumor sizes were assayed every other day until the 27th day after inoculation.

[5] = combination with anti-CTLA-4 antibody
[6] = combination with anti-PD-1 antibody

SIRPα-Fc-CD40L: generic name of the SIRPαECD-Fc-CD40LECD chimeric protein; human or murine version according to the experiment
rejection of primary tumor (tumors [1]): able to reject primary tumor
synergy in phagocytosis with anti-CD20 antibody (Raji cells; Fc receptors on the macrophages pre-blocked): synergy was lost
phagocytosis activity by flow cytometry (Raji cells; combination with an anti-CD20 antibody, among treatment groups): greatest phagocytosis activity
macrophage engulfment (phagocytosis) of tumor cells (Raji cells; combination with anti-CD20 antibody (Rituximab), listed as SIRPα(CD172a)-Fc-CD40L): most effective; also recorded: effective
rate of tumor cells engulfed by macrophages (phagocytosis index) (Raji cells; combination with anti-CD20 antibody vs chimeric protein-alone and antibody-alone treatments): greater than the sum
stimulation of phagocytosis (Raji cells; combination with anti-CD20 antibody, CD40 pre-blocked): remained the same
treatment outcome (tumor size, survival) (CT26 tumor; anti-CTLA-4 antibody administered before the chimeric protein): greatest treatment outcome
treatment outcome (tumor size, survival) (CT26 tumor; anti-PD-1 antibody administered with the chimeric protein): greatest treatment outcome
treatment outcome / tumor control (CT26 tumor; chimeric protein administered before or after the anti-PD-1 antibody): less great treatment outcome
treatment outcome / tumor control (CT26 tumor; chimeric protein administered before the anti-CTLA-4 antibody): less great treatment outcome
phagocytosis [2]: demonstrated monotherapy activity
tumor size (WEHI3 tumors; combination with anti-CD20 antibody): reduced tumor size greater than either component alone
tumor reduction (WEHI3 tumors; combination with anti-IFNAR-1 antibody vs chimeric protein alone): less tumor reduction
tumor reduction (WEHI3 tumors; triple combination with anti-CD20 and anti-IFNAR-1 antibodies vs chimeric protein plus anti-CD20): less tumor reduction
rejection of primary tumor (tumors [3]; combination of chimeric protein and antibody): able to reject primary tumor
survival (tumors [3]; [5]): any survivors by the sixteenth day
tumor size (tumors [3]; [5]): effective in reducing tumor size
survival (tumors [3]; [6]): any survivors by the sixteenth day
tumor size (tumors [3]; [6]): effective in reducing tumor size
macrophage engulfment of tumor cells [4]: more effective
improvement in tumor volume (CT26 tumor cells; chimeric protein administered after the anti-CTLA-4 antibody): most significant improvement
tumor volume (CT26 tumor cells; [5]): reduced tumor volume
